Values quoted from earlier work as cited in patent publication US20130315977A1, “TRANSDERMAL PATCH” (priority 2011, published 2013).

Columns and labels:
[1] = system: serotonin 5-HT2 receptor; settings: as compared to haloperidol
[2] = target: dopamine D2 (Homo sapiens, UniProt P14416); settings: as compared to haloperidol
Chain of dopamine D2 (P14416 whole entry): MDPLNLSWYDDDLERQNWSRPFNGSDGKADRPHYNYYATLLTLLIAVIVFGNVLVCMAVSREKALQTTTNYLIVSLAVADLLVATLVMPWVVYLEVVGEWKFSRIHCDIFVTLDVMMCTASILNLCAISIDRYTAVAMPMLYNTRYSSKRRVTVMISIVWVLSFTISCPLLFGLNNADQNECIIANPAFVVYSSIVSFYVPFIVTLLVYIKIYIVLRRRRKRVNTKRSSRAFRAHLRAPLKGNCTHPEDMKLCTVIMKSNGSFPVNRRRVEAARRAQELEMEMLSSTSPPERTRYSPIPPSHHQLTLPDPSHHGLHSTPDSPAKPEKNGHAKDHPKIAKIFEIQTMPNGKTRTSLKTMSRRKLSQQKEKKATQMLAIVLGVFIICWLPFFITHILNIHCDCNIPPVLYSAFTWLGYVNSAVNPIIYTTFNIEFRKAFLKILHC

affinity for serotonin 5-HT2 receptor [1]: high affinity
affinity for dopamine D2 [2]: high affinity
SMILES: CCN1CCN(c2cc(-c3ccc(F)cc3)c3c(n2)CCCCCC3)CC1 [Blonanserin, 2-(4-ethyl-1-piperazinyl)-4-(4-fluorophenyl)-5,6,7,8,9,10-hexahydrocycloocta[b]pyridine]
